Laboratory results from patent US9814732B2, “Ulipristal acetate for prevention and treatment of breast tumors” (LABORATOIRE HRA-PHARMA, priority 2012, dated 2017).

What was measured:
[1] = tested on: GR target genes (IEX-1, G0S8, cyclin A, BCL2); experiment: qRT-PCR mRNA expression of GR target genes in MCF-7 cells; type: cell-based, human
Procedure: After seeding, cells were cultured for 24 h in serum and phenol red free medium. Then treatments were carried out in a phenol red free medium containing 5% dextran-charcoal stripped serum. Cells were treated with P or DEX (100 nM), alone or in combination with UPA, RU (1 nM to 1 μM) or CDB-3877 (100 nM). Control cells were treated with ethanol, at […] 1:1000 final ethanol concentration alone as vehicle or E2 (10 nM).
Total RNA was extracted using TriZOL Reagent (Invitrogen, Cergy-Pontoise, France).
2 μg of total RNA was subjected to reverse transcription (RT) using random primers for 1 h at 37° C. 2 μl of RT product was diluted (1:10) and subjected to quantitative PCR using sequence specific primers (300 nM) and Brillant SYBR GREEN QPCR master mix (Fermentas, Saint-Rémy-lès-Chevreuse, France) on an Mx3000P apparatus (Agilent Technologies, Massy, France). Conditions were 1 cycle at 95° C. for 10 min followed by 40 cycles at 95° C. for 30 sec, 60° C. for 1 min and 72° C. for 30 sec. Gene expression values were normalized to the housekeeping gene 36B4. Time of steroid treatment was chosen to get the optimal stimulation for a given gene. ALPL and G0S8 mRNA were analyzed after 6 h of treatment. IEX-1, FASN, and BCL2 were analyzed after 24 h of treatment. Cyclin A mRNA was analyzed after 24 h for GR responses or 48 h for PR responses.

hPR-A and hPR-B = experiment: MMTV-Luc reporter gene transactivation in HBE cells transfected with hPR-A and/or hPR-B; type: cell-based, human
Procedure: T-47D and MCF-7 cell lines were respectively maintained in RPMI 1640 and in DMEM medium supplemented with 10% fetal calf serum (PAA Laboratory, Les Mureaux, France). […] Normal human breast epithelial cell (HBE) primary cultures were obtained from 20 women (aged 17-50 years). […] HBE cells were maintained in HAM F10 medium (PAA Laboratory, Les Mureaux, France) containing hydrocortisone (5 ng/ml), Triiodo-L-thyronine (6.5 ng/ml), choleratoxin (10 ng/ml), transferrin (5 mg/ml), insulin (0.016 U/ml), epidermal growth factor (10 ng/ml) (Sigma, St Quentin Fallavier, France) and 5% human serum (Etablissement Français du Sang).
After seeding, cells were cultured for 24 h in serum and phenol red free medium. Then treatments were carried out in a phenol red free medium containing 5% dextran-charcoal stripped serum. […] Control cells were treated with ethanol, at 10 1:1000 final ethanol concentration alone as vehicle or E2 (10 nM).
Cells were transfected with reporter gene plasmids containing glucocorticoid and progesterone responsive elements (GRE/PRE): 1) the MMTV-Luc is a Mouse Mammary Tumor Virus Long Terminal Repeat promoter containing one GRE/PRE palindrome and three GRE/PRE hemi-palindromes upstream to firefly luciferase gene in pFC31 vector, 2) the GRELuc contains six copies of GRE/PRE palindrome upstream to firefly luciferase gene in pBL vector. When indicated, HBE cells were transfected with human PR isoforms hPR-A and hPR-B expression plasmids constructed in POP3 vectors. Rous Sarcoma Virus promoter upstream to beta galactosidase gene (pRSV-β-Gal) was transfected in each experiment as control. Transfections were performed according to the manufacturer instructions using Lipofectamine or Lipofectamine LTX Reagents (Invitrogen, Cergy-Pontoise, France) for breast cancer cell lines or HBE cells, respectively. After 24 h of transfection, breast cancer and HBE cells were treated with hormones for 24 h or 48 h, respectively. At the end of the experiment, cells were lysed and luciferase activity was determined using the Luciferase Assay System (Promega, Charbonnières-les-bains, France). Beta galactosidase activity was assessed using the Galacto Star kit (Applied Biosystems, Courtaboeuf, France) to normalize luciferase activity data.

[2] = tested on: normal human breast tissues xenografts; experiment: Ki67 mitotic index in normal human breast tissue xenografted in athymic mice; type: in vivo; conditions: E2+P+UPA vs E2 and E2+P groups, lobules and ducts, UPA 20 mg pellet, 28 days
From the text: Breast tissues samples were obtained from 6 women (aged 29-42 years) undergoing surgery for reduction mammoplasty, with their informed consent according to the French law on clinical experimentation.
Four weeks old ovariectomized female NMRInu/nu 20 athymic mice were purchased from Janvier laboratory (Le Genest Saint Isle, France). Breast tissues samples were obtained from 6 women (aged 29-42 years). Human mammary gland tissue was cut into 2×2×2 mm fragments and 4 fragments were then subcutaneously xenografted onto the back of 4 mice per group. Four treatment groups were performed: control, E2, E2+P and E2+P+UPA. Treatments were administered by grafting steroid pellets onto the neck of each mouse. The experimental conditions were initially determined by using a dose range of hormones mixed with cholesterol into the pellets. Blood sample assays were performed after 2 weeks and 4 weeks of treatment to measure plasmatic hormonal concentrations. Finally, the dose of 0.3 mg for E2 and 20 mg for P and UPA were used, as it provides the expected blood concentrations. For the control groups, pellets containing only cholesterol were used. To reproduce menstrual cycle conditions, mice were grafted on the first day of experiment with cholesterol, E2 and/or UPA containing pellets and on the fourteen day with cholesterol or progesterone containing pellets in control and E2 groups, or in E+P and E2+P+UPA groups, respectively. Twenty eight days after the start of experiment, mice were sacrificed. Blood was collected for each mouse, and serum was frozen at −20° C. until hormone concentrations
Mitotic index was calculated using the Ki67 antibody, and was determined for each breast tissue grafted into mice. Immunohistochemical analyses were performed using the BOND-MAX workstation (Leica, Nanterre, France). Paraffin sections of breast tissue xenografts were de-waxed and rehydrated before antigen retrieval using citrate retrieval solution (pH 6.0) for Ki67 antibody or EDTA retrieval solution (pH 9.0) for PR and ERalpha antibodies, for 30 min. […]

GR = target: T1, GR (Homo sapiens, UniProt P04150); experiment: GRE-Luc reporter gene transactivation in HBE cells; type: cell-based; conditions: DEX 100 nM, test compound 100 nM, read-out: inhibition of DEX induced luciferase transactivation (GRE-Luc)
T1 sequence (P04150 1-777): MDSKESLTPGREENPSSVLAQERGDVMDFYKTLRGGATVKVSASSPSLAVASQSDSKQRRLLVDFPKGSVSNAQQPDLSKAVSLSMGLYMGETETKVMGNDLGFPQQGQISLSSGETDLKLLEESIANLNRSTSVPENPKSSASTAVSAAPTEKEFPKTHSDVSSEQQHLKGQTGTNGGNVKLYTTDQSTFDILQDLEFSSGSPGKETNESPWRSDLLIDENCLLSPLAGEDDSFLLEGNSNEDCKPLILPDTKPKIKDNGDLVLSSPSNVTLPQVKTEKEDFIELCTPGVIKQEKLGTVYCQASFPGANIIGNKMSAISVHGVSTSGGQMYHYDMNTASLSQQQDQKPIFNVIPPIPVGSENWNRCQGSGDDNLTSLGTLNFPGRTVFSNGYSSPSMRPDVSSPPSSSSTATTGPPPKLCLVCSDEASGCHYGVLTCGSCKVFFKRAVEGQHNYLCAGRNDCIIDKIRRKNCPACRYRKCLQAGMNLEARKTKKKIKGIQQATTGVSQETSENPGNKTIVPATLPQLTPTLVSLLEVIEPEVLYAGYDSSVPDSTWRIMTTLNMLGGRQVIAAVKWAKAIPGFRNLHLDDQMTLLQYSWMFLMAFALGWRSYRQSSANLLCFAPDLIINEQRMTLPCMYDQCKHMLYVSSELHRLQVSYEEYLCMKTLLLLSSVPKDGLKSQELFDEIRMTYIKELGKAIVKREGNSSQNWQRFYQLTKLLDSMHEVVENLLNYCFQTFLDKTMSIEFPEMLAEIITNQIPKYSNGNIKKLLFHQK

CC(=O)O[C@]1(C(C)=O)CCC2C3CCC4=CC(=O)CCC4=C3[C@@H](c3ccc(N(C)C)cc3)C[C@@]21C (some centres unmarked) [UPA, 17[…]-acetoxy-11[…]-[4-N,N-dimethylamino-phenyl)-19-norpregna-4,9-diene-3,20-dione]
G0S8 mRNA expression ([1]; DEX and/or UPA 100 nM, 6 h, p<0.001): anti-glucocorticoid activity was strong | BCL2 mRNA expression (GR response) ([1]; DEX and/or UPA 100 nM, 24 h): partially antagonized this effect | IEX-1 mRNA expression ([1]; DEX and/or UPA 100 nM, 24 h): did not antagonize this response | cyclin A mRNA expression (GR response) ([1]; DEX and/or UPA 100 nM, 24 h): partially inhibited DEX effect on cyclin A mRNA expression | glucocorticoid agonist activity on GR target genes ([1]; UPA 100 nM alone): did not display any glucocorticoid agonist activity | inhibition of P induced MMTV-Luc transactivation (hPR-A and hPR-B; HBE cells co-transfected with hPR-A and hPR-B, P 100 nM, antagonist 1 to 1000 nM): inhibited P induced MMTV11 Luc transactivation in a dose dependent manner from 1 000 to 10 nM | antagonist performance between PR isoforms (MMTV-Luc) (hPR-A and hPR-B; HBE cells transfected with only hPR-A or hPR-B): No difference with increasing the levels of each PR isoform was seen on UPA antagonist performance | lowest concentration necessary to exert a complete antagonist activity (hPR-A and hPR-B; HBE cells, MMTV-Luc, P 100 nM): A hundred | progestational agonist properties on reporter gene transcription (hPR-A and hPR-B; HBE cells, compound alone): did not exhibit progestational agonist properties | proliferation rate (Ki67) of normal epithelial breast cells [2]: does not significantly influence the proliferation rate | inhibition at 0.1 µM (GR): 41.3 ± 5.8%
